# Target: EGFR (UniProt P00533)
# Sequence (P00533 whole entry, looked up): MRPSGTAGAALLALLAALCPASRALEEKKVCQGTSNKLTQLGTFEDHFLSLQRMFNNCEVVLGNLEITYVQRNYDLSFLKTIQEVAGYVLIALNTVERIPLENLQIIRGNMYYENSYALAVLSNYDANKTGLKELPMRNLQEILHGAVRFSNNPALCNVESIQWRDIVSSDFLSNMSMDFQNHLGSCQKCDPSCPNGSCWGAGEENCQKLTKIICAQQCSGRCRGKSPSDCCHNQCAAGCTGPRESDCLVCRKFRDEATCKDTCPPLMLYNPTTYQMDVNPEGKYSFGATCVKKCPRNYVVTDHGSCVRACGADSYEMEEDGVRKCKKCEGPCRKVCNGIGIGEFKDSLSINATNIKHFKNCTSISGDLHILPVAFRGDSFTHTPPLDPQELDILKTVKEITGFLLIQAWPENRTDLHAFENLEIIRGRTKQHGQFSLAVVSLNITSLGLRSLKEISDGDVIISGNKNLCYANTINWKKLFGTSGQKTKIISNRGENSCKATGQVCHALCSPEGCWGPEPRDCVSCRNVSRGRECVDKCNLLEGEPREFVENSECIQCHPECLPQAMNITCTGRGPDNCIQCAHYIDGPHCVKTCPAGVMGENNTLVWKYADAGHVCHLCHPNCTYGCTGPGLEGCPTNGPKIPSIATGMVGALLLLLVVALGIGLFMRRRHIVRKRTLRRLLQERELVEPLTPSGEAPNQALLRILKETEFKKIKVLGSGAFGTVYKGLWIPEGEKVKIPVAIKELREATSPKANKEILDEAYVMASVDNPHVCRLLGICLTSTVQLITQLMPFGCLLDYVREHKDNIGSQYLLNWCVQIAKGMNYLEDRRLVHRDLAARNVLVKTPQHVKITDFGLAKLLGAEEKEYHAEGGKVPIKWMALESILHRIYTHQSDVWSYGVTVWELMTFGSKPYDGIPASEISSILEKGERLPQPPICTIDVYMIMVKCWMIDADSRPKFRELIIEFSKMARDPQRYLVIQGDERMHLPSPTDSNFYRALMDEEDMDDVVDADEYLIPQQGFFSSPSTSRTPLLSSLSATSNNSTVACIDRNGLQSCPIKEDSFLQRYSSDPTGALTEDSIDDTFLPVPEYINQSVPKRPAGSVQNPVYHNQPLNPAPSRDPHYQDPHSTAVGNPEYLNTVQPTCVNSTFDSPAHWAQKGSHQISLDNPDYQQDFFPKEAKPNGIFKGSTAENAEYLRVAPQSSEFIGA
row,IC50,SMILES
1,< 0.1 µM,Fc1cccc(COc2ccc(Nc3ncncc3C#Cc3cccc(CNCCCn4ccnc4)n3)cc2Cl)c1
2,≤ 10 µM,Fc1cccc(COc2ccc(Nc3ncncc3C#Cc3ccsc3)cc2Cl)c1
3,< 0.1 µM,O=C(NCCN1CCOCC1)NCc1cccc(C#Cc2cncnc2Nc2ccc(OCc3cccc(F)c3)c(Cl)c2)n1
4,< 0.1 µM,CN(C)CCCC(=O)Nc1cccc(C#Cc2cncnc2Nc2ccc(OCc3cccc(F)c3)c(Cl)c2)n1
5,≤ 10 µM,NCc1cccc(C#Cc2cncnc2Nc2ccc(OCc3cccc(F)c3)c(Cl)c2)n1
6,≤ 10 µM,CN(C)Cc1cccc(C#Cc2cncnc2Nc2ccc(OCc3cccc(F)c3)c(Cl)c2)n1
7,≤ 10 µM,O=C(Nc1cccc(C#Cc2cncnc2Nc2ccc(OCc3cccc(F)c3)c(Cl)c2)n1)C(F)(F)Cl
8,≤ 10 µM,Fc1cccc(COc2ccc(Nc3ncncc3C#Cc3cccc(CN4CCCC4)n3)cc2Cl)c1
9,≤ 10 µM,O=Cc1cccc(C#Cc2cncnc2Nc2ccc(OCc3cccc(F)c3)c(Cl)c2)c1
10,≤ 10 µM,Fc1cccc(COc2ccc(Nc3ncncc3C#Cc3cn[nH]c3)cc2Cl)c1
11,< 0.1 µM,CS(=O)(=O)CCNC(=O)NCc1cccc(C#Cc2cncnc2Nc2ccc(OCc3cccc(F)c3)c(Cl)c2)n1
12,≤ 10 µM,CN(CCO)Cc1cccc(C#Cc2cncnc2Nc2ccc(OCc3cccc(F)c3)c(Cl)c2)n1
13,≤ 10 µM,CC(=O)Nc1cccc(C#Cc2cncnc2Nc2ccc3[nH]c(Cc4ccccc4)nc3c2)c1
14,> 1 µM,CS(=O)(=O)CCNc1cccc(C#Cc2cncnc2Nc2ccc(OCc3cccc(F)c3)c(Cl)c2)n1
15,0.1 to 1 µM,COC(=O)CCC(=O)Nc1cccc(C#Cc2cncnc2Nc2ccc(OCc3cccc(F)c3)c(Cl)c2)n1
16,≤ 10 µM,Fc1cccc(COc2ccc(Nc3ncncc3C#Cc3cccc(CN4CCNCC4)n3)cc2Cl)c1
17,≤ 10 µM,Fc1cccc(COc2ccc(Nc3ncncc3C#Cc3ccc4c(c3)CNCC4)cc2Cl)c1
18,≤ 10 µM,Fc1cccc(COc2ccc(Nc3ncncc3C#Cc3ccccn3)cc2Cl)c1
19,< 0.1 µM,Fc1cccc(COc2ccc(Nc3ncncc3/C=C/c3ccsc3)cc2Cl)c1

row,IC50,SMILES
1,0.1 to 1 µM,N=C(N)Nc1cccc(C#Cc2cncnc2Nc2ccc(OCc3cccc(F)c3)c(Cl)c2)c1
2,≤ 10 µM,Fc1cccc(COc2ccc(Nc3ncncc3/C=C/c3cccs3)cc2Cl)c1
3,≤ 10 µM,CS(=O)(=O)CCNCc1ccc(C#Cc2cncnc2Nc2ccc(OCc3cccc(F)c3)c(Cl)c2)o1
4,≤ 10 µM,COCCNCc1cccc(C#Cc2cncnc2Nc2ccc(OCc3cccc(F)c3)c(Cl)c2)n1
5,≤ 10 µM,CC(=S)Nc1cccc(C#Cc2cncnc2Nc2ccc(OCc3cccc(F)c3)c(Cl)c2)c1
6,≤ 10 µM,Fc1cccc(C#Cc2cncnc2Nc2ccc(OCc3cccc(F)c3)c(Cl)c2)c1
7,≤ 10 µM,Fc1cccc(COc2ccc(Nc3ncncc3C#Cc3cccnc3)cc2Cl)c1
8,≤ 10 µM,CC(=O)Nc1cccc(C#Cc2cncnc2Nc2ccc(Cc3ccccc3)cc2)c1
9,≤ 10 µM,Fc1cccc(COc2ccc(Nc3ncncc3C#Cc3ccccc3)cc2Cl)c1
10,≤ 10 µM,Nc1ncc(/C=C/c2cncnc2Nc2ccc(OCc3cccc(F)c3)c(Cl)c2)cn1
11,0.1 to 1 µM,C(=C\c1cncnc1Nc1ccc2c(cnn2Cc2ccccc2)c1)/c1cn[nH]c1
12,≤ 10 µM,Cc1ccc(S(=O)(=O)n2ccc3ccc(C#Cc4cncnc4Nc4ccc(OCc5cccc(F)c5)c(Cl)c4)cc32)cc1
13,< 0.1 µM,Fc1cccc(COc2ccc(Nc3ncncc3/C=C/c3ccncc3)cc2Cl)c1
14,≤ 10 µM,O=Cc1ccccc1C#Cc1cncnc1Nc1ccc(OCc2cccc(F)c2)c(Cl)c1
15,≤ 10 µM,Fc1cccc(COc2ccc(Nc3ncncc3C#Cc3cncnc3)cc2Cl)c1
16,> 1 µM,COCc1cccc(C#Cc2cncnc2Nc2ccc(OCc3cccc(F)c3)c(Cl)c2)n1
17,≤ 10 µM,CNC(=O)c1cccc(/C=C/c2cncnc2Nc2ccc3[nH]c(Cc4ccccc4)nc3c2)c1
18,> 1 µM,C(=C\c1cncnc1Nc1ccc2sc(Cc3ccccc3)nc2c1)/c1ccsc1
19,≤ 10 µM,CS(=O)(=O)CC(=O)Nc1cccc(C#Cc2cncnc2Nc2ccc(OCc3cccc(F)c3)c(Cl)c2)c1

# — the Kinase Knowledgebase extract (Sharma et al. 2016)
